From patent US5238953A, “N-imidazolyl derivatives of substituted tetrahydrocarbazole and cyclohept (B) indole” (Farmitalia Carlo Erba S.R.L., priority 1991, dated 1993) come the findings set out here.

Where two headings read alike, the source gives them in different places.

The subject of one experiment is TxB2 synthesis. Description: TxB2 synthesis inhibition in vitro in whole blood of normal rats. Format: cell-based, normal Sprague Dawley rats. The following applies: Rattus norvegicus, read-out: In vitro effect on TxB2 synthesis in normal rats, IC50 (whole blood). Here is the method: (§1) The effects of a representative group of compounds of the invention were evaluated, in comparison with known compounds, on TxB2 synthesis inhibition in vitro in whole blood of normal rats, and on TxA2 antagonism in a binding assay in washed human platelets.
TxB2 Synthesis Inhibition
Blood was withdrawn from the abdominal aorta of normal Sprague Dawley rats (Charles River Italy) under light ether anaesthesia. The blood was immediately divided in portions of 0.5 ml and distributed in glass tubes each containing a concentration of the test compound, or of the reference compounds.
Samples were then allowed to clot for 1 hour at 37° C., centrifuged at 3000 rpm for 10 min, and serum collected and stored at -20° C. until assayed.

For the next experiment, the target named is T1, TXA2 receptor (Homo sapiens, UniProt P21731).
T1 construct: endogenous in cells; host or cells: washed human platelets from blood of healthy volunteers
T1 sequence (P21731 1-343): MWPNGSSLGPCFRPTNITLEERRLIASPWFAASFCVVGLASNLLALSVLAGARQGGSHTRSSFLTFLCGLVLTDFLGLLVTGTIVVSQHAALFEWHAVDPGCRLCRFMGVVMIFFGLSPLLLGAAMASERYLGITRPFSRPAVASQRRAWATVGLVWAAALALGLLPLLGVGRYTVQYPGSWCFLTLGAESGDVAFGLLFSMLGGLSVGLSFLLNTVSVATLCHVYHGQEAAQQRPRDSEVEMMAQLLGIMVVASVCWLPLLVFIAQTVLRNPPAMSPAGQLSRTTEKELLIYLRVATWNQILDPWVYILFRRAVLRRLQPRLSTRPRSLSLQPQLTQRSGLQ
Put plainly: Displacement of [^3 H]-SQ 29.548 binding to washed human platelets (TxA2 antagonism). As to conditions: for affinity for the receptor: in words, compared with BM 13505 and BM 13177, binding test (washed human platelets); for IC50: washed human platelets, [^3 H]-SQ 29,548 5 nM, 30 min at 25° C., read-out: ^3 H SQ 29548 binding displacement (washed human platelet) IC50. Here is the method:
as §1
Displacement of [^3 H]-SQ 29.548 binding to washed human platelets
Blood from healthy volunteers of both sexes who had not taken any medication for at least 10 days was collected into one-tenth volume of acid citrate dextrose containing indomethacin (28 μM). Platelet rich plasma (PRP), obtained by centrifugation of the blood at 200×g for 20 min, was washed twice (1000×g for 10 min). The platelets are then resuspended in Tyrode-Hepes buffer (pH 7.4) to a final concentration of […] and incubated for 0-60 min at 25° with [^3 H]-SQ 29,548 (5 nM). For displacement experiments various concentrations (10^-9 -10^-4 M) of competing ligands were added and incubated for 30 min at 25° C. […] After the incubation, 4 ml of ice-cold TRIS-HCl buffer (10 mM, pH 7.4) was added to each tube and the reaction mixture was immediately filtered by suction through a Whatman GF/C glass filter disc which was washed 2 times with ice-cold TRIS-HCl (4 ml) and counted for radioactivity by a Packard β-counter.
The binding data were analysed by computerized non-linear curve fitting using the Ligand program and expressed as IC50.

The mark [1] stands for this setting: whole blood of normal rats, clotted 1 hour at 37° C.

For the compound `CC(=O)Oc1ccccc1C(=O)O` [ASA, acetylsalicilic acid], the IC50 in the experiment on TxB2 synthesis (1 h) is 31000 nM.

With `O=C(O)c1ccc(OCCn2ccnc2)cc1` [Dazoxiben], the half-maximal inhibitory concentration (IC50) in the experiment on TxB2 synthesis (setting [1]) was found to be 1200 nM.

Regarding `O=C(O)CC1CCCc2c1n(Cc1ccc(-n3ccnc3)cc1)c1ccc(F)cc21` (stereo not shown) [FCE 26643, 6-Fluoro-9-[[4-(1H-imidazol-1-yl)phenyl]methyl]-1,2,3,4-tetrahydrocarbazol-1-yl-acetic acid], on TXA2 receptor, the “affinity for the receptor” value is “affinity for the receptor greater than those of compounds BM 13505 and BM 13177”; the IC50 was determined as 6.6 nM.

As for `O=C(O)CC1CCCc2c(n(Cc3ccc(-n4ccnc4)cc3)c3ccc(F)cc23)C1` (stereo not shown) [FCE 27041, 2-Fluoro-5-[[4-(1H-imidazol-1-yl)phenyl]methyl]-5,6,7,8,9,10-hexahydrocyclohept[b]indole-7-acetic acid], on TXA2 receptor, the “affinity for the receptor” value is “affinity for the receptor greater than those of compounds BM 13505 and BM 13177”; the 50% inhibitory concentration (IC50) is 6 nM. In the experiment with TxB2 synthesis (setting [1]), the IC50 came out at 198 nM.

Broadly, the IC50 is the point on the concentration scale where inhibition reaches its midpoint.
